Results published in patent publication US11541032B2, “Composition containing sumo inhibitor and application” (CHINA PHARMACEUTICAL UNIVERSITY, priority 2018, dated 2023).

Assays:
Format in all cases: cell-based, Rat
[1] = tested on: activated HSCs (HSC-T6 cells); experiment: RT-PCR of fibrotic-related gene Acta2 mRNA in activated HSCs; conditions: after administration of SP
Protocol: (§1) HSC-T6 cells, seeded and cultured in a proper density, were treated with TGF-β([…]) or OCA (5 μM) or GW40064 (5 μM) or WAY-362450 (5 μM) for 12 h before collection.
(§2) RNA solutions and kit components were prepared into a system with a total volume of 20 μl according to a system proportion required in the specification, and a program temperature was set for reverse transcription.
(§3) Stage 2: PCR reaction at 95° C. for 15 sec; for example, at 60° C. for 30 sec for 40 Cycles; and at 72° C. for 30 sec.
(§4) Specific methods were the same as those in section 2.1 in Embodiment 1.
(§5) Specific methods were the same as those in section 2.2 in Embodiment 1.

[2] = tested on: FXR signaling pathway; experiment: RT-PCR of FXR target gene Shp mRNA in quiescent and TGF-β-activated HSC-T6 cells; conditions: for mRNA expression of Shp: activated HSCs, in the presence of SUMO inhibitor SP; for mRNA level of Shp: activated state (TGF-β1 incubation) HSC-T6 cells; for mRNA level of Shp / mRNA level of Shp, an FXR target gene: agonist 5 μM, 12 h; for mRNA level of Shp, an FXR target gene: quiescent HSC-T6 cells
Protocol: as §1
1) After the cells were cleaned by PBS, 800 μl of a Trizol reagent was added. After repeated blowing by a pipette, the cells were transferred into an EP tube to be subjected to still standing for 5 min at the room temperature.
2) 160 μl of chloroform was added, and violent oscillation was performed for 15 sec. After still standing for 5 min at the room temperature, 12000 g centrifugation was performed for 15 min. The sample was divided into three layers including a bottom layer being a yellow organic phase, an upper layer being a colorless water phase, and a middle layer.
3) 300 μl of the upper layer water phase was carefully transferred into a new tube. 300 μl of isopropanol was added. After uniform mixing through reversing, still standing was performed for 10 min at the room temperature. Then, 12000 g centrifugation was performed for 10 min. Supernatant was abandoned.
4) RNA precipitates were washed by 1.0 ml of precooled 75% ethanol. Then, 12000 g centrifugation was performed for 5 min. Supernatant was abandoned to obtain total RNA. Redissolution was performed by 10 μl of DEPC water. After quantification, dilution was performed to 0.5 μg/μl.
as §2
Stage 1: reverse transcription at 37° C. for 15 min.
Stage 2: denaturation at 85° C. for 5 s.
Stage 1: initial denaturation at 95° C. for 1 min.
as §3
Stage 3: dissociation curve analysis at 65 to 95° C., 0.5° C./5s.
as §4, §5

[3] = tested on: FXR proteins; experiment: SUMOylation ELISA of FXR proteins in activated HSCs
Protocol: as §1
After cell nuclear proteins were extracted according to specification requirements of an ELISA detection kit, primary antibodies and nuclear proteins of a cell sample were incubated for 60 min at the room temperature in a plate hole. SUMO specific detection antibodies were then supplemented and added according to the specification requirements. A color sensitizer was further added for color development. Then, absorbance at 655 nm was fast read. Relative quantitative analysis was performed.
as §4
Specific methods were the same as those in section 2.3 in Embodiment 1.

Row | Molecule | expression of fibrotic-related gene Acta2 [1] | mRNA expression of Shp [2] | mRNA level of Shp [2] | mRNA level of Shp, an FXR target gene [2] | SUMOylation level of FXR proteins [3]
1 | CC(C)c1onc(-c2c(Cl)cccc2Cl)c1COc1ccc(/C=C/c2cccc(C(=O)O)c2)c(Cl)c1 [GW4064] | significantly reduced | significantly up-regulated | none of the FXR agonists OCA, GW4064 and WAY-362450 could significantly up-regulate | could significantly up-regulate | 
2 | CC(C)OC(=O)C1=CN(C(=O)c2ccc(F)c(F)c2)CC(C)(C)c2c1[nH]c1ccccc21 [WAY-362450] | significantly reduced | significantly up-regulated | none of the FXR agonists OCA, GW4064 and WAY-362450 could significantly up-regulate | could significantly up-regulate | 
3 | ginkgolic acid [GA] |  |  |  |  | could significantly reduce
4 | CN[C@@H]1[C@H](O)[C@H](NC)[C@H]2O[C@@]3(O)C(=O)C[C@@H](C)O[C@H]3O[C@@H]2[C@H]1O [SP, spectinomycin] |  |  |  |  | could significantly reduce
